Results as given in paper PMC12435366, “Maleic anhydride derived diphosphines: adaptable chelators for receptor-targeted ^99mTc, ^64Cu and ^188Re radiotracers” (Chemical Science, 2025).

Test system: LNCaP prostate cancer cells
Assay: In vitro uptake of 99mTc tracers in LNCaP cells
Assay type: cell-based
Conditions: co-incubation with PMPA, 1 h
Protocol: To compare the relative uptake and specificity of the new radiotracers for PSMA, [^99mTcO2(DP^Ph-PSMAt)2]^+, [^99mTcO2(DP^An-PSMAt)2]^+ and [^99mTcO2(DP^MEP-PSMAt)2]^+ (50 kBq) were purified from unreacted ^99mTc precursors and excess DP-PSMAt peptide, and each incubated with PSMA-expressing DU145-PSMA+ prostate cancer cells[33] or LNCaP prostate cancer cells (5 × 10^5 cells). After 1 h incubation, uptake of each radiotracer was quantified. […]
4.9 99mTc uptake in DU145, DU145-PSMA+ and LNCaP cells
The following experiment was performed in biological triplicate.
A panel of cell lines were selected that either expressed GCP(II)/PSMA (DU145-PSMA+ (genetically modified to express PSMA),12 and LNCaP (CRL‐1740)), or had low GCP(II)/PSMA expression (DU145 (HTB-81)). All cell lines were cultured in RPMI 1640 medium (R0883, Sigma) containing 10% foetal bovine serum, 2 mM L-glutamine, and 100 U mL−1 penicillin and 100 µg mL−1 streptomycin. Cells were maintained at 37 °C and 5% CO 2. Cells were seeded in 6-well plates at a density of 5 × 10^5 cells per well […]
in 2 mL complete media to achieve 70–80% confluency the following day. […] The cells were lysed with ice cold radioimmunoprecipitation assay buffer (RIPA buffer, 500 μL; 150 mM sodium chloride, 0.1% w/w sodium dodecyl sulfate (SDS), 0.5% w/w sodium deoxycholate (NaDOC), 1% w/w Triton-X) and samples were collected for radioactivity counting. […]

Compound	blocking of cell uptake by PSMA inhibitor PMPA
COCCOc1ccc(P(/C(C(=O)O)=C(/C(=O)NCCOCCOCCOCCOCCC(=O)NCCCC[C@H](NC(=O)N[C@@H](CCC(=O)O)C(=O)O)C(=O)O)P(c2ccc(OCCOC)cc2)c2ccc(OCCOC)cc2)c2ccc(OCCOC)cc2)cc1 [[^99mTcO2(DP^MEP-PSMAt)2]^+, metal not drawn]	blocked
COc1ccc(P(/C(C(=O)O)=C(/C(=O)NCCOCCOCCOCCOCCC(=O)NCCCC[C@H](NC(=O)N[C@@H](CCC(=O)O)C(=O)O)C(=O)O)P(c2ccc(OC)cc2)c2ccc(OC)cc2)c2ccc(OC)cc2)cc1 [[^99mTcO2(DP^An-PSMAt)2]^+, metal not drawn]	blocked
